Assay [1] addresses T1, TXA2 synthase (Homo sapiens, UniProt P24557).
T1 construct: using microsomal fractions from human platelets as enzyme source; from tissue; host or cells: human platelets, microsomal fraction
T1 sequence (P24557 1-533): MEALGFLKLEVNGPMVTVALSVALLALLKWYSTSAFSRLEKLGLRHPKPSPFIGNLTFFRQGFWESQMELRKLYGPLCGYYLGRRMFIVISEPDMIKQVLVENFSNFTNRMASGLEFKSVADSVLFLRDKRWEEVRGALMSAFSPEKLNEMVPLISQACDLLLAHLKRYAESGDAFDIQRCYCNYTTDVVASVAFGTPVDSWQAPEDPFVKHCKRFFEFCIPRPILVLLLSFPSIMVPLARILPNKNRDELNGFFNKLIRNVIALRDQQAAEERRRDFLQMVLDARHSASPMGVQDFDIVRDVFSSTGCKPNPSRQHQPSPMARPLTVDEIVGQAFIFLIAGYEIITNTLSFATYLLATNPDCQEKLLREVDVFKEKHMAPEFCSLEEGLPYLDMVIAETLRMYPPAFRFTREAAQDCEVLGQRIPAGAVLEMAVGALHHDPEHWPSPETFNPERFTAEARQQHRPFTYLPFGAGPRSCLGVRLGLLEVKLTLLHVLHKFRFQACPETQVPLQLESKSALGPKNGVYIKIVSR
Nature of the assay: Thromboxane Synthase Inhibition, In Vitro. Conditions: human platelet microsomes; for inhibition at 0.1 µM: at 10^-7 M. Format: biochemical. Here is the method:
TXA2 synthase activity is measured by following the conversion of ^14 C-prostaglandin endoperoxide (PGH2) to ^14 C-thromboxane A2 (TXA2) using microsomal fractions from human platelets as enzyme source. In the aqueous incubation medium, the TXA2 decomposes rapidly into TXB2. The amount of TXA2 synthase is adjusted so that under the conditions of the assay approximately 80-90% of the substrate, PGH2, is converted to product in control tubes. To prepare ^14 C--PGH2, ^14 C--AA (50-60 mCi/mmole; Rose Chem.) is incubated with sheep seminal vesicular gland microsomes for 1.5 minutes at 37° C. and then the ^14 C--PGH2 is extracted with diethylether, purified on columns of Sephadex LH-20 or silicic acid, and stored in acetone at -70° C. Incubations are done as follows. Sufficient ^14 C--PGH2 to yield a final substrate concentration of 10 μM (30,000 cpm) is added to the incubation tubes and then the acetone is removed under nitrogen. The tubes are placed in an ice bath and then 215 μl of ice cold phosphate buffered saline, 10 μl of ethanol (control) or of test drug in ethanol, and 25 μl of the microsomal suspension are added with mixing in that order as rapidly as possible. The tubes are incubated at 22° C. for 2 minutes, the reaction is stopped and then the radioactive products and the uncoverted PGH2 are extracted and analyzed by thin layer chromatography. […] The amount of ^14 C--PGH2 converted to products was used as a measure of TXA2 synthase activity. Inhibitors were tested initially at a final concentration of 100 μM. Results obtained with representative compounds of the present invention in this assay are summarized hereafter in Table I.

The subject of assay [2] is SRS-A-induced constriction of the guinea pig ileum. Nature of the assay: Guinea Pig Ileum, In Vitro (inhibition of SRS-A-induced constriction). Format: cell-based. Conditions: Cavia porcellus; SRS-A-induced constriction; in vitro; read-out: Guinea Pig Ileum, IC50. On the procedure: The guinea pig ileum bioassay system has been described by Orange and Austen, Adv. Immunol. […] A 1.5 cm segment is removed from animals weighing 300-400 g. and suspended in an organ bath containing 10 ml. of Tyrodes solution with 10^-6 M atropine sulfate and 10^-6 M pyrilamine maleate. […] The SRS-A utilized in this screen is obtained by challenging chopped lung fragments from actively sensitized guinea pigs with egg albumin, in vitro. A dose-response curve to SRS-A challenge is established for the ileum. […] The drug concentration which inhibits, by 50%, the SRS-A-induced constriction of the guinea pig ileum is determined.

The term inhibition denotes how much of the control response was suppressed.

Take `CC(C)c1ccc2ncn(/C=C/C(=O)NCCCCc3cccnc3)c(=O)c2c1` [drawing 12]: 0.1 µM produced 48% inhibition in assay [1]. The IC50 in assay [2] stood at 1 µM.
Turning to `CC(C)c1ccc2ncn(/C=C/C(=O)NCCCCc3ccccn3)c(=O)c2c1` [drawing 17], the IC50 in assay [1] (read-out: TXA2 Synthase Inhibition (concentration bound printed in the % column)) and in assay [2] was greater than 10 µM each time.
With `CC(C)c1ccc2ncn(/C=C/C(=O)NCCCCn3ccnc3)c(=O)c2c1` [drawing 15], in assay [1], 0.1 µM produced 72% inhibition. In addition, the IC50 in assay [2] worked out at 5 µM.
